As a reminder, the pIC50 is the negative decadic logarithm of the IC50, by convention in mol/L.

Molecules are shown by their SMILES. pIC50: −log10 of the molar value.

IC50 data for 60 compounds are collected here from patent US20260158017A1, “KIF18A INHIBITOR” (WIGEN BIOMEDICINE TECHNOLOGY (SHANGHAI) CO., LTD., priority 2021, published 2026).

For this assay, the target named is T1, Recombinant human KIF18A (1-467His-tagged) protein (Homo sapiens, UniProt Q8NI77).
T1 construct: Recombinant human KIF18A (1-467His-tagged) protein; His; made in house
T1 sequence (Q8NI77 1-467): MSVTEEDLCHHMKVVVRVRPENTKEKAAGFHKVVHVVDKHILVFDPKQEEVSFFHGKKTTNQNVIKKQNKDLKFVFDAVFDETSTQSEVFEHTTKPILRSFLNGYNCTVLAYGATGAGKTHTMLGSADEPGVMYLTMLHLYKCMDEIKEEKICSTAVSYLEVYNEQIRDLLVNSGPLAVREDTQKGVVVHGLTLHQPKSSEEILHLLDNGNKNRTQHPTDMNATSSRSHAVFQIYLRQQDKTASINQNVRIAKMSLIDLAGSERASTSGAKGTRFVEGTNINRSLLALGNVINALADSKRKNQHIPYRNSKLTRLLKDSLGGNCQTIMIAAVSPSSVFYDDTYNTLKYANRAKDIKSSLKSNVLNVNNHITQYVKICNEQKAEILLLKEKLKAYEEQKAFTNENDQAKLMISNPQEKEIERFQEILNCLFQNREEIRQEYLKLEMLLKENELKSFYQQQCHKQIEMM
T1 sequence (P02550 whole entry partner): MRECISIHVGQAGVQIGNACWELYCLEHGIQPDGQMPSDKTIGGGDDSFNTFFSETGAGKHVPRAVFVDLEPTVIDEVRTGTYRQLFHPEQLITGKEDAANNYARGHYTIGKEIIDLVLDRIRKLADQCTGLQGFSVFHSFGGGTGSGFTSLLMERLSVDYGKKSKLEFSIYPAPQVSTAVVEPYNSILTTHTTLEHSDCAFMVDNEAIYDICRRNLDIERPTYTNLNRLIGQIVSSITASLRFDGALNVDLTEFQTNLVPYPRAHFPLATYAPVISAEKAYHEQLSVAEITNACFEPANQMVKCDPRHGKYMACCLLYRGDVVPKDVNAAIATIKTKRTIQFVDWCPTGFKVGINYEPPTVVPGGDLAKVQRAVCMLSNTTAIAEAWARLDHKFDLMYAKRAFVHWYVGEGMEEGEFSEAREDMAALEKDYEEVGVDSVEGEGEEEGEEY
T1 sequence (P02554 whole entry partner): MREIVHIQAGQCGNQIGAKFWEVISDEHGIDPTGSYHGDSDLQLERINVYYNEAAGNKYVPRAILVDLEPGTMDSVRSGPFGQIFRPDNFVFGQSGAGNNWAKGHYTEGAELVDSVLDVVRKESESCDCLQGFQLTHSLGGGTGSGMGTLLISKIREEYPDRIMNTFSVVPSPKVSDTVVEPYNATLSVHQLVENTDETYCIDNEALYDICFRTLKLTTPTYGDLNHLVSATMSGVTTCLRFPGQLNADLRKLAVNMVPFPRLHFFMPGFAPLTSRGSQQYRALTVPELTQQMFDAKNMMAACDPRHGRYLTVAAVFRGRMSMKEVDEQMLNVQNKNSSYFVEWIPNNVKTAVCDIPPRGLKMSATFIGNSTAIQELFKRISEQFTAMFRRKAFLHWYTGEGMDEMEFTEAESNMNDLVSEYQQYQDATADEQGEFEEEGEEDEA
The assay can be described thus: KIF18A enzyme assay (microtubule-stimulated ATPase activity, ADP-Glo). In kind it is biochemical. Conditions: 30 nM KIF18A, 75 μM ATP, 30 μg/mL pig microtubules; read-out: Inhibitory activity against KIF18A IC50. The method in brief: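 Buffer 15 mM Tris pH 7.5, 10 mM MgCl2, 0.01% Pluronic F-68, 1 μM paclitaxel, 30 μg/mL pig microtubules; reactions at room temperature. IC50 from inhibition relative to DMSO.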
In general terms: In ADP-Glo the light output rises with the ADP produced.
Regarding `COc1ccc(C(=O)Nc2ccc(S(=O)(=O)NCCO)cc2N2CCC3(CC2)CC3)nc1N1CC2CC2C1` (stereo not drawn) [Compound 346], the pIC50 is at least 7.00. The same measure for `COc1ccc(C(=O)Nc2ccc(S(=O)(=O)NCCO)cc2N2CCC3(CC2)CC3)nc1NC(C)(C)CO` [Compound 347]: at least 7.00. The same measure for `COc1ccc(C(=O)Nc2ccc(S(=O)(=O)NCCO)cc2N2CCC3(CC2)CC3)nc1N1CCOCC1` [Compound 348]: at least 7.00; for `COc1ccc(C(=O)Nc2ccc(S(=O)(=O)N[C@@H](C)CO)cc2N2CCC3(CC2)CC3)nc1N1CCC(F)(F)CC1` [Compound 349]: at least 7.00; for `COc1ccc(C(=O)Nc2ccc(S(=O)(=O)N[C@H](C)CO)cc2N2CCC3(CC2)CC3)nc1N1CCC(F)(F)CC1` [Compound 350]: at least 7.00. Regarding `COc1ccc(C(=O)Nc2ccc(S(=O)(=O)N[C@@H](C)CO)cc2N2CCC3(CC2)CC3)nc1N1CCO[C@H](C)C1` [Compound 351], the negative logarithm of the IC50 (pIC50) is at least 7.00. As for `COc1ccc(C(=O)Nc2ccc(S(=O)(=O)N[C@H](C)CO)cc2N2CCC3(CC2)CC3)nc1N1CCO[C@H](C)C1` [Compound 352], the figure is at least 7.00; as for `COc1ccc(C(=O)Nc2cnc(NS(=O)(=O)CCO)cc2N2CCC3(CC2)CC3)nc1N1CCO[C@H](C)C1` [Compound 354], at least 7.00. As for `COc1ccc(C(=O)Nc2cnc(NS(=O)(=O)CCO)cc2N2CCC3(CC2)CC3)nc1N1CCO[C@@H](C)C1` [Compound 355], the figure is at least 7.00; as for `COc1ccc(C(=O)Nc2cnc(NS(=O)(=O)CCO)cc2N2CCC3(CC2)CC3)nc1N1CC(F)(F)C1` [Compound 356], at least 7.00; as for `COc1ccc(C(=O)Nc2cnc(NS(=O)(=O)CCO)cc2N2CCC3(CC2)CC3)nc1OCCC(F)(F)F` [Compound 357], at least 7.00. As for `COc1ccc(C(=O)Nc2cnc(NS(=O)(=O)CCO)cc2N2CCC3(CC2)CC3)nc1N1CCC2(CC2)C1` [Compound 358], the figure is at least 7.00; as for `COc1ccc(C(=O)Nc2cnc(NS(=O)(=O)CCO)cc2N2CCC3(CC2)CC3)nc1OC1CCC1` [Compound 359], at least 7.00. With `COc1ccc(C(=O)Nc2cnc(NS(=O)(=O)CCO)cc2N2CCC3(CC2)CC3)nc1N1CCC(C)(F)C1` (stereo not drawn) [Compound 360], the negative logarithm of the IC50 (pIC50) was at least 7.00.

Take `COc1ccc(C(=O)Nc2cnc(NS(=O)(=O)CCO)cc2N2CCC3(CC2)CC3)nc1N1CCC(F)CC1` [Compound 361]: the negative-log IC50 (pIC50) was at least 7.00. As for `COc1ccc(C(=O)Nc2cnc(NS(=O)(=O)CCO)cc2N2CCC3(CC2)CC3)nc1N1CC2CC2C1` (stereo not drawn) [Compound 362], the figure is at least 7.00; as for `COc1ccc(C(=O)Nc2cnc(NS(=O)(=O)CCO)cc2N2CCC3(CC2)CC3)nc1NC(C)(C)CO` [Compound 363], at least 7.00; as for `COc1ccc(C(=O)Nc2cnc(NS(=O)(=O)CCO)cc2N2CCC3(CC2)CC3)nc1N1CCOCC1` [Compound 364], at least 7.00.

As for `COc1ccc(C(=O)Nc2cnc(NS(=O)(=O)[C@@H](C)CO)cc2N2CCC3(CC2)CC3)nc1N1CCC(F)(F)CC1` [Compound 365], the negative-log IC50 (pIC50) was at least 7.00. The same measure for `COc1ccc(C(=O)Nc2cnc(NS(=O)(=O)[C@H](C)CO)cc2N2CCC3(CC2)CC3)nc1N1CCC(F)(F)CC1` [Compound 366]: at least 7.00.

As for `COc1ccc(C(=O)Nc2cnc(NS(=O)(=O)[C@@H](C)CO)cc2N2CCC3(CC2)CC3)nc1N1CCO[C@H](C)C1` [Compound 367], the negative-log IC50 (pIC50) was at least 7.00. The same measure for `COc1ccc(C(=O)Nc2cnc(NS(=O)(=O)[C@H](C)CO)cc2N2CCC3(CC2)CC3)nc1N1CCO[C@H](C)C1` [Compound 368]: at least 7.00; for `COc1ccc(C(=O)Nc2cnc(S(=O)(=O)NCCO)cc2N2CCC3(CC2)CC3)nc1N1CCC(F)(F)CC1` [Compound 369]: at least 7.00. The same measure for `COc1ccc(C(=O)Nc2cnc(S(=O)(=O)NCCO)cc2N2CCC3(CC2)CC3)nc1N1CCO[C@H](C)C1` [Compound 370]: at least 7.00; for `COc1ccc(C(=O)Nc2cnc(S(=O)(=O)NCCO)cc2N2CCC3(CC2)CC3)nc1N1CCO[C@@H](C)C1` [Compound 371]: at least 7.00. The same measure for `COc1ccc(C(=O)Nc2cnc(S(=O)(=O)NCCO)cc2N2CCC3(CC2)CC3)nc1N1CC(F)(F)C1` [Compound 372]: at least 7.00; for `COc1ccc(C(=O)Nc2cnc(S(=O)(=O)NCCO)cc2N2CCC3(CC2)CC3)nc1OCCC(F)(F)F` [Compound 373]: at least 7.00; for `COc1ccc(C(=O)Nc2cnc(S(=O)(=O)NCCO)cc2N2CCC3(CC2)CC3)nc1N1CCC2(CC2)C1` [Compound 374]: at least 7.00. Regarding `COc1ccc(C(=O)Nc2cnc(S(=O)(=O)NCCO)cc2N2CCC3(CC2)CC3)nc1OC1CCC1` [Compound 375], the pIC50 is at least 7.00. The same measure for `COc1ccc(C(=O)Nc2cnc(S(=O)(=O)NCCO)cc2N2CCC3(CC2)CC3)nc1N1CCC(C)(F)C1` (stereo not drawn) [Compound 376]: at least 7.00; for `COc1ccc(C(=O)Nc2cnc(S(=O)(=O)NCCO)cc2N2CCC3(CC2)CC3)nc1N1CCC(F)CC1` [Compound 377]: at least 7.00; for `COc1ccc(C(=O)Nc2cnc(S(=O)(=O)NCCO)cc2N2CCC3(CC2)CC3)nc1N1CC2CC2C1` (stereo not drawn) [Compound 378]: at least 7.00. The same measure for `COc1ccc(C(=O)Nc2cnc(S(=O)(=O)NCCO)cc2N2CCC3(CC2)CC3)nc1NC(C)(C)CO` [Compound 379]: at least 7.00. The same measure for `COc1ccc(C(=O)Nc2cnc(S(=O)(=O)NCCO)cc2N2CCC3(CC2)CC3)nc1N1CCOCC1` [Compound 380]: at least 7.00. With `COc1ccc(C(=O)Nc2cnc(S(=O)(=O)N[C@@H](C)CO)cc2N2CCC3(CC2)CC3)nc1N1CCC(F)(F)CC1` [Compound 381], the pIC50 was at least 7.00. The same measure for `COc1ccc(C(=O)Nc2cnc(S(=O)(=O)N[C@H](C)CO)cc2N2CCC3(CC2)CC3)nc1N1CCC(F)(F)CC1` [Compound 382]: at least 7.00. As for `COc1ccc(C(=O)Nc2cnc(S(=O)(=O)N[C@@H](C)CO)cc2N2CCC3(CC2)CC3)nc1N1CCO[C@H](C)C1` [Compound 383], the figure is at least 7.00. For `COc1ccc(C(=O)Nc2cnc(NS(=O)(=O)[C@H](C)CO)cc2N2CCC3(CC2)CC3)nc1N1CCO[C@H](C)C1` [Compound 384], the pIC50 was at least 7.00. As for `C[C@@H]1CN(c2cc(NC(=O)c3ccc(NS(=O)(=O)CCO)cc3N3CCC4(CC3)CC4)ccc2OCF)CCO1` [Compound 386], the figure is at least 7.00; as for `C[C@H]1CN(c2cc(NC(=O)c3ccc(NS(=O)(=O)CCO)cc3N3CCC4(CC3)CC4)ccc2OCF)CCO1` [Compound 387], at least 7.00. The same measure for `O=C(Nc1ccc(OCF)c(N2CC(F)(F)C2)c1)c1ccc(NS(=O)(=O)CCO)cc1N1CCC2(CC1)CC2` [Compound 388]: at least 7.00; for `O=C(Nc1ccc(OCF)c(OCCC(F)(F)F)c1)c1ccc(NS(=O)(=O)CCO)cc1N1CCC2(CC1)CC2` [Compound 389]: at least 7.00; for `O=C(Nc1ccc(OCF)c(N2CCC3(CC3)C2)c1)c1ccc(NS(=O)(=O)CCO)cc1N1CCC2(CC1)CC2` [Compound 390]: at least 7.00. As for `O=C(Nc1ccc(OCF)c(OC2CCC2)c1)c1ccc(NS(=O)(=O)CCO)cc1N1CCC2(CC1)CC2` [Compound 391], the figure is at least 7.00. On to `CC1(F)CCN(c2cc(NC(=O)c3ccc(NS(=O)(=O)CCO)cc3N3CCC4(CC3)CC4)ccc2OCF)C1` (stereo not drawn) [Compound 392], for which the pIC50 was at least 7.00. The same measure for `O=C(Nc1ccc(OCF)c(N2CCC(F)CC2)c1)c1ccc(NS(=O)(=O)CCO)cc1N1CCC2(CC1)CC2` [Compound 393]: at least 7.00.

Consider `CC(C)(CO)Nc1cc(NC(=O)c2ccc(NS(=O)(=O)CCO)cc2N2CCC3(CC2)CC3)ccc1OCF` [Compound 395], for which the pIC50 is at least 7.00. The same measure for `O=C(Nc1ccc(OCF)c(N2CCOCC2)c1)c1ccc(NS(=O)(=O)CCO)cc1N1CCC2(CC1)CC2` [Compound 396]: at least 7.00; for `C[C@@H](CO)S(=O)(=O)Nc1ccc(C(=O)Nc2ccc(OCF)c(N3CCC(F)(F)CC3)c2)c(N2CCC3(CC2)CC3)c1` [Compound 397]: at least 7.00. As for `C[C@H](CO)S(=O)(=O)Nc1ccc(C(=O)Nc2ccc(OCF)c(N3CCC(F)(F)CC3)c2)c(N2CCC3(CC2)CC3)c1` [Compound 398], the figure is at least 7.00; as for `C[C@@H]1CN(c2cc(NC(=O)c3ccc(NS(=O)(=O)[C@@H](C)CO)cc3N3CCC4(CC3)CC4)ccc2OCF)CCO1` [Compound 399], at least 7.00.

In the case of `O=C(Nc1ccc(OCF)c(N2CCC(F)(F)CC2)c1)c1ccc(S(=O)(=O)NCCO)cc1N1CCC2(CC1)CC2` [Compound 401], the pIC50 was at least 7.00. As for `C[C@@H]1CN(c2cc(NC(=O)c3cnc(S(=O)(=O)NCCO)cc3N3CCC4(CC3)CC4)ccc2OCF)CCO1` [Compound 402], the figure is at least 7.00; as for `C[C@H]1CN(c2cc(C(=O)Nc3ccc(S(=O)(=O)NCCO)cc3N3CCC4(CC3)CC4)ccc2OCF)CCO1` [Compound 403], at least 7.00.

As to `O=C(Nc1ccc(OCF)c(N2CC(F)(F)C2)c1)c1ccc(S(=O)(=O)NCCO)cc1N1CCC2(CC1)CC2` [Compound 404], the negative-log IC50 (pIC50) is at least 7.00. The same measure for `O=C(Nc1ccc(OCF)c(OCCC(F)(F)F)c1)c1ccc(S(=O)(=O)NCCO)cc1N1CCC2(CC1)CC2` [Compound 405]: at least 7.00; for `O=C(Nc1ccc(OCF)c(N2CCC3(CC3)C2)c1)c1ccc(S(=O)(=O)NCCO)cc1N1CCC2(CC1)CC2` [Compound 406]: at least 7.00; for `O=C(Nc1ccc(OCF)c(OC2CCC2)c1)c1ccc(S(=O)(=O)NCCO)cc1N1CCC2(CC1)CC2` [Compound 407]: at least 7.00. The same measure for `CC1(F)CCN(c2cc(NC(=O)c3ccc(S(=O)(=O)NCCO)cc3N3CCC4(CC3)CC4)ccc2OCF)C1` (stereo not drawn) [Compound 408]: at least 7.00.

With `O=C(Nc1ccc(OCF)c(N2CCC(F)CC2)c1)c1ccc(S(=O)(=O)NCCO)cc1N1CCC2(CC1)CC2` [Compound 409], the pIC50 was at least 7.00.
